Values quoted from earlier work as cited in patent EP4660212A1, “POLYVINYL ALCOHOL-BASED POLYMER” (Japan Vam & Poval Co., Ltd., priority 2023, dated 2024).

Conditions: water at 20°C

Structure (SMILES)	solubility in 100 mL (100 g) of water
c1ccc2cc3ccccc3cc2c1 [anthracene]	about 0.13 mg/100 g water
CCOc1ccccc1C(N)=O [ethenzamide]	about 100 mg/100 g water
